Data published in patent US7348427B2, “Antipathogenic benzamide compounds” (Genesoft Pharmaceuticals, Inc., priority 2001, dated 2008).

How the values were obtained:
[1] = tested on: Staphylococcus epidermidis (ATCC 12228); assay: MIC, NCCLS broth microdilution assay; assay type: cell-based; conditions: G = S. epidermidis ATCC 12228
Procedure, shortened: (§1)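 The antifungal assay used the Manual of Clinical Microbiology (1995) procedure. […] minimal inhibitory concentrations came from NCCLS broth microdilution per M7-A4, M11-A4 and M27-T.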

[2] = tested on: Streptococcus pneumoniae (ATCC 51422, a penicillin resistant strain (PRSP)); assay: MIC, NCCLS broth microdilution assay; assay type: cell-based; conditions: I = S. pneumoniae ATCC 51422
Procedure, shortened: as §1

[3] = tested on: Staphylococcus aureus (ATCC 13709, a methicillin sensitive strain (MSSA)); assay: MIC, NCCLS broth microdilution assay; assay type: cell-based; conditions: E = S. aureus ATCC 13709
Procedure, shortened: as §1

[4] = tested on: Staphylococcus aureus (ATCC 27660, a methicillin resistant strain (MRSA)); assay: MIC, NCCLS broth microdilution assay; assay type: cell-based; conditions: F = S. aureus ATCC 27660
Procedure, shortened: as §1

[5] = tested on: Bacillus cereus (ATCC 11778); assay: MIC, NCCLS broth microdilution assay; assay type: cell-based; conditions: A = B. cereus ATCC 11778
Procedure, shortened: as §1

[6] = tested on: Enterococcus faecium (ATCC 51559, a vancomycin resistant strain (VRE)); assay: MIC, NCCLS broth microdilution assay; assay type: cell-based; conditions: D = E. faecium ATCC 51559
Procedure, shortened: as §1

E. faecalis ATCC 29212 = assay: MIC, NCCLS broth microdilution assay; assay type: cell-based, Enterococcus faecalis; conditions: C = E. faecalis ATCC 29212
Procedure, shortened: (§2)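 MICs were determined by NCCLS broth microdilution following documents M7-A4 and M11-A4 (1997).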

S. pneumoniae ATCC 49619 = assay: MIC, NCCLS broth microdilution assay; assay type: cell-based, Streptococcus pneumoniae; conditions: H = S. pneumoniae ATCC 49619
Procedure, shortened: as §2

[7] = tested on: Candida albicans (ATCC 38247); assay: Antifungal MIC assay; assay type: cell-based; conditions: B = C. albicans ATCC 38247
Procedure, shortened: as §1

[8] = Staphylococcus aureus, read-out: Minimum Inhibitory Concentration (MIC)

| Structure (SMILES) | Minimum Inhibitory Concentration (MIC) [1] | Minimum Inhibitory Concentration (MIC) [2] | Minimum Inhibitory Concentration (MIC) [3] | Minimum Inhibitory Concentration (MIC) [4] | Minimum Inhibitory Concentration (MIC) [5] | Minimum Inhibitory Concentration (MIC) [6] | Minimum Inhibitory Concentration (MIC) (E. faecalis ATCC 29212) | Minimum Inhibitory Concentration (MIC) (S. pneumoniae ATCC 49619) | Minimum Inhibitory Concentration (MIC) [7] | MIC ([1]; Staphylococcus epidermidis, ATCC12228, read-out: Minimum Inhibitory Concentration (MIC)) [µg/mL] | MIC ([2]; Streptococcus pneumoniae, read-out: Minimum Inhibitory Concentration (MIC)) [µg/mL] | MIC [3, 8] [µg/mL] | MIC [4, 8] [µg/mL] | MIC ([5]; Bacillus cereus, ATCC11778, read-out: Minimum Inhibitory Concentration (MIC)) [µg/mL] | MIC ([6]; Enterococcus faecium, read-out: Minimum Inhibitory Concentration (MIC)) [µg/mL] | MIC (E. faecalis ATCC 29212; Enterococcus faecalis, ATCC29212, read-out: Minimum Inhibitory Concentration (MIC)) [µg/mL] | MIC (S. pneumoniae ATCC 49619; Streptococcus pneumoniae, ATCC49619, read-out: Minimum Inhibitory Concentration (MIC)) [µg/mL] | MIC ([7]; Candida albicans, ATCC38247, read-out: Minimum Inhibitory Concentration (MIC)) [µg/mL] |
| --- | --- | --- | --- | --- | --- | --- | --- | --- | --- | --- | --- | --- | --- | --- | --- | --- | --- | --- |
| Cn1cc(NC(=O)c2cc(NC(=O)c3cc(NC(=O)c4ccc(F)cc4F)c[nH]3)cn2C)cc1C(=O)NCCN1CCC(F)(F)CC1 [Compound A-12] | +++ (+++ = MIC ≦ 4) | +++ (+++ = MIC ≦ 4) | +++ (+++ = MIC ≦ 4) | + (+ = 12 ≦ MIC ≦ 32) | +++ (+++ = MIC ≦ 4) | +++ (+++ = MIC ≦ 4) | +++ (+++ = MIC ≦ 4) | +++ (+++ = MIC ≦ 4) | >32 µg/mL | – | – | – | – | – | – | – | – | – |
| CN(C)CCCNC(=O)c1cc(NC(=O)c2cc(NC(=O)c3cc(NC(=O)c4ccc(Cl)cc4F)c[nH]3)cn2C)cn1C [Compound A-13] | +++ (+++ = MIC ≦ 4) | +++ (+++ = MIC ≦ 4) | +++ (+++ = MIC ≦ 4) | +++ (+++ = MIC ≦ 4) | +++ (+++ = MIC ≦ 4) | + (+ = 12 ≦ MIC ≦ 32) | ++ (++ = 4 < MIC < 12) | +++ (+++ = MIC ≦ 4) | +++ (+++ = MIC ≦ 4) | – | – | – | – | – | – | – | – | – |
| CCN(CC)CCNC(=O)c1cc(NC(=O)c2cc(NC(=O)c3cc(NC(=O)c4ccc(Cl)cc4F)c[nH]3)cn2C)cn1C [Compound A-16] | +++ (+++ = MIC ≦ 4) | +++ (+++ = MIC ≦ 4) | +++ (+++ = MIC ≦ 4) | +++ (+++ = MIC ≦ 4) | +++ (+++ = MIC ≦ 4) | +++ (+++ = MIC ≦ 4) | +++ (+++ = MIC ≦ 4) | +++ (+++ = MIC ≦ 4) | +++ (+++ = MIC ≦ 4) | – | – | – | – | – | – | – | – | – |
| Cn1cc(NC(=O)c2cc(NC(=O)c3ccc(Cl)cc3F)c[nH]2)cc1C(=O)NCCN1CCCCC1 [Compound A-18] | +++ (+++ = MIC ≦ 4) | +++ (+++ = MIC ≦ 4) | +++ (+++ = MIC ≦ 4) | +++ (+++ = MIC ≦ 4) | +++ (+++ = MIC ≦ 4) | +++ (+++ = MIC ≦ 4) | +++ (+++ = MIC ≦ 4) | +++ (+++ = MIC ≦ 4) | >32 µg/mL | – | – | – | – | – | – | – | – | – |
| Cn1cc(NC(=O)c2cc(NC(=O)c3ccc(Cl)cc3F)c[nH]2)cc1C(=O)NCCN1CCSCC1 [Compound A-21] | +++ (+++ = MIC ≦ 4) | +++ (+++ = MIC ≦ 4) | +++ (+++ = MIC ≦ 4) | +++ (+++ = MIC ≦ 4) | +++ (+++ = MIC ≦ 4) | +++ (+++ = MIC ≦ 4) | +++ (+++ = MIC ≦ 4) | +++ (+++ = MIC ≦ 4) | >32 µg/mL | – | – | – | – | – | – | – | – | – |
| Cn1cc(NC(=O)c2cc(NC(=O)c3ccc(Cl)cc3F)c[nH]2)cc1C(=O)NCCN1CCC(F)(F)CC1 [Compound A-22] | +++ (+++ = MIC ≦ 4) | +++ (+++ = MIC ≦ 4) | +++ (+++ = MIC ≦ 4) | +++ (+++ = MIC ≦ 4) | +++ (+++ = MIC ≦ 4) | +++ (+++ = MIC ≦ 4) | +++ (+++ = MIC ≦ 4) | +++ (+++ = MIC ≦ 4) | >32 µg/mL | – | – | – | – | – | – | – | – | – |
| Cn1cc(NC(=O)c2cc(NC(=O)c3cc(NC(=O)c4ccc(Cl)cc4F)c[nH]3)cn2C)cc1C(=O)NCC[N+]1(C)CCOCC1 [Compound A-28] | – | – | – | – | – | – | – | – | – | ≤ 4 | ≤ 4 | ≤ 4 | ≤ 4 | ≤ 4 | 12 to 32 | 4 to 12 | ≤ 4 | ≤ 4 |
| Cn1cc(NC(=O)c2cc(NC(=O)c3cc(NC(=O)c4ccc(F)cc4F)cn3C)cn2C)cc1C(=O)NCCN1CCOCC1 [Compound B-1] | +++ (+++ = MIC ≦ 4) | +++ (+++ = MIC ≦ 4) | +++ (+++ = MIC ≦ 4) | +++ (+++ = MIC ≦ 4) | +++ (+++ = MIC ≦ 4) | +++ (+++ = MIC ≦ 4) | +++ (+++ = MIC ≦ 4) | +++ (+++ = MIC ≦ 4) | >32 µg/mL | – | – | – | – | – | – | – | – | – |
| Cn1cc(NC(=O)c2cc(NC(=O)c3cc(NC(=O)c4ccc(F)cc4F)cn3C)cn2C)cc1C(=O)NCCN1CCSCC1 [Compound B-3] | +++ (+++ = MIC ≦ 4) | +++ (+++ = MIC ≦ 4) | +++ (+++ = MIC ≦ 4) | +++ (+++ = MIC ≦ 4) | +++ (+++ = MIC ≦ 4) | + (+ = 12 ≦ MIC ≦ 32) | +++ (+++ = MIC ≦ 4) | +++ (+++ = MIC ≦ 4) | >32 µg/mL | – | – | – | – | – | – | – | – | – |
| Cn1cc(NC(=O)c2cc(NC(=O)c3ccc(F)cc3F)cn2C)cc1C(=O)NCCN1CCSCC1 [Compound B-11] | +++ (+++ = MIC ≦ 4) | +++ (+++ = MIC ≦ 4) | +++ (+++ = MIC ≦ 4) | +++ (+++ = MIC ≦ 4) | +++ (+++ = MIC ≦ 4) | +++ (+++ = MIC ≦ 4) | +++ (+++ = MIC ≦ 4) | +++ (+++ = MIC ≦ 4) | >32 µg/mL | – | – | – | – | – | – | – | – | – |
| Cn1cc(NC(=O)c2cc(NC(=O)c3cc(NC(=O)c4ccc(F)cc4F)cn3C)cn2C)cc1C(=O)NCCc1ccncc1 [Compound B-22] | +++ (+++ = MIC ≦ 4) | +++ (+++ = MIC ≦ 4) | +++ (+++ = MIC ≦ 4) | +++ (+++ = MIC ≦ 4) | +++ (+++ = MIC ≦ 4) | +++ (+++ = MIC ≦ 4) | +++ (+++ = MIC ≦ 4) | +++ (+++ = MIC ≦ 4) | >32 µg/mL | – | – | – | – | – | – | – | – | – |
